Like-named read-outs stand apart in the source and are kept apart here.
Assays:
PC-3 cells [1] = assay: In vitro migration (wound closure) assay in PC-3 cells; format: cell-based; conditions: Homo sapiens, PC-3, 24 h, read-out: inhibition of migration of PC-3 cells
Procedure: PC3 cells were cultured to confluence at >90% in 6 well culture dishes in 10% FBS RPMI1640 media the day before the assay. Lines were drawn with a marker on the bottom of the dishes. Using a sterile 1 mL pipet tip, the dishes were scratched three separate wounds through the cells moving perpendicular to the line drawn in the step above. The cells were rinsed with PBS twice very gently and added the RPMI1640 media, and the dishes were taken pictures using phase contrast under Leica DMI3000B microscope.

ROCK-I = ROCK-I (Homo sapiens, UniProt Q13464); assay: ROCK-I biochemical counter-screen; conditions: Table 6; read-out: Biochemical Inhibition IC50 (nM) ROCK-I
ROCK-I, sequence (Q13464 whole entry, species assumed): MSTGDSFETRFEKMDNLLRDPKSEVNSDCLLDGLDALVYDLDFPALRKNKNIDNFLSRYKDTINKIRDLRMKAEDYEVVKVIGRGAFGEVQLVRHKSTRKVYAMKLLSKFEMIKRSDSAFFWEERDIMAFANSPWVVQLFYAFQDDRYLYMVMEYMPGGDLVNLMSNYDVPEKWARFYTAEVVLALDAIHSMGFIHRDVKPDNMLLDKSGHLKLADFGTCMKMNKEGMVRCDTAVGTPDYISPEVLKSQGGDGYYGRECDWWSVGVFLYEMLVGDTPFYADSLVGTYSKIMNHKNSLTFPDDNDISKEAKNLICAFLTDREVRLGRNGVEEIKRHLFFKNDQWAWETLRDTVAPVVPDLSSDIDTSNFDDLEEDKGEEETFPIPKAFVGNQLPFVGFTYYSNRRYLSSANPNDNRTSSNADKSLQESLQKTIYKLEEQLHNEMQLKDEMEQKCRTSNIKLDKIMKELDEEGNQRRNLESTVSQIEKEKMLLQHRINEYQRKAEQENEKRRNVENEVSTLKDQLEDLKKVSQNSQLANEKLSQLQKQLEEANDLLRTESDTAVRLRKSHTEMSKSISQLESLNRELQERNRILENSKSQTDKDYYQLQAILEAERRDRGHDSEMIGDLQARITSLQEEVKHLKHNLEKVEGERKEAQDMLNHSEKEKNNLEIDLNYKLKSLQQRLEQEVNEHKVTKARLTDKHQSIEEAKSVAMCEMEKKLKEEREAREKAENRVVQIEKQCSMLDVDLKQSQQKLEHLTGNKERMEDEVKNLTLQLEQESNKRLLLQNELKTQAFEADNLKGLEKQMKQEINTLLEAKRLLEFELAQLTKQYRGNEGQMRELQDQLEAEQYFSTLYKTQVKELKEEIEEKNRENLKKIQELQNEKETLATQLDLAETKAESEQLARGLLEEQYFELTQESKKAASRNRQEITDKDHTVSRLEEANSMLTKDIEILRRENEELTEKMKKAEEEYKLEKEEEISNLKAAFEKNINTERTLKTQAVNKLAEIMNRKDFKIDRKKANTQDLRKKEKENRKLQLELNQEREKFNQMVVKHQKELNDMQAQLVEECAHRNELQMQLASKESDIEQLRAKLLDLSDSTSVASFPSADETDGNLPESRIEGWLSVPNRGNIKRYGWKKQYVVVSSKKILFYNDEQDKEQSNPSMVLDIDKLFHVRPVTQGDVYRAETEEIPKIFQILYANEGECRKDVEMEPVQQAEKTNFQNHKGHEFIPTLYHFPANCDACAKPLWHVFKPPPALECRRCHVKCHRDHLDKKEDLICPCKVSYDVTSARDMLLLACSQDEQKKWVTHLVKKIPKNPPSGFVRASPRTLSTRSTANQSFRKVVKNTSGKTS

P450 1A2 = target: T1, P450 1A2 (Homo sapiens, UniProt P05177)
T1 sequence (P05177 1-516): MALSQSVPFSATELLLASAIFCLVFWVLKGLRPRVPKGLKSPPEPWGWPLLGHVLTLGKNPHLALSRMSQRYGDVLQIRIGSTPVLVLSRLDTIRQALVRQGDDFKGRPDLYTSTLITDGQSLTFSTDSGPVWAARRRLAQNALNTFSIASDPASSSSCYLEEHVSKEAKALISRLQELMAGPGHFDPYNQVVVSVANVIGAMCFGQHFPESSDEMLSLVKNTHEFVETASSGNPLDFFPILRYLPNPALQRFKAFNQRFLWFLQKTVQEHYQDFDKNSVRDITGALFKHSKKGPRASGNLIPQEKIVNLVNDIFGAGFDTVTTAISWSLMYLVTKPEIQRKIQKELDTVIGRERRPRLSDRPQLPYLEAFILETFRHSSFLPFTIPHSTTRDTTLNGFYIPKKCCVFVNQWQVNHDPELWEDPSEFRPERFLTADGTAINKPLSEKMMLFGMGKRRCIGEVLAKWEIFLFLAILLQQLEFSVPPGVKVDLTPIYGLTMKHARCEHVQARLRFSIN

[2] = system: cofilin phosphorylation in A7r5 cells; assay: In-cell Western assay of cofilin phosphorylation in A7r5 cells; format: cell-based
Procedure: A7r5 (15,000 cells/well) were plated in a clear-bottomed Packard View black 96-well plate in 100 μl of 10% FBS DMEM:F12 medium and were allowed to attach overnight. The next day, the cells were serum starved in 1% FBS DMEM medium for 2 hr and then treated with the compounds for 1 hr. […] Next day, they were washed twice with PBS-0.1% Tween 20 (PBST) washing solution for 5 min each at room temperature on the orbital shaker, followed by one wash with Licor Blocking Buffer containing 0.05% Tween-20 for 5 min on the shaker at RT. The cells were then incubated with secondary antibody goat anti-rabbit IR800 (1:500 dilution) for 1 hr at RT in the dark (covered the plate with foil) in Licor blocking buffer-containing Tween-20. Following this, cells were washed twice with PBST for 5 min each at room temperature and then once with Licor blocking buffer-containing 0.05% Tween-20. The wells were then incubated with ToPro 3 stain (nucleic acid staining), diluted 1:4000 in Licor blocking buffer or Licor blocking buffer with 0.05% Tween-20 for 30 min at room temperature in the dark. Finally the plates were washed twice with PBS and analyzed using the Odyssey LICOR Infrared Scanner.

[3] = Microsomal stability, rat liver microsomes; format: in vitro ADME
PC-3 cells [4] = assay: In vitro invasion assay in PC-3 cells; format: cell-based; conditions: Homo sapiens, 48 hours, compared to the control
Procedure: Transwell chambers coated with GFR Matrigel (BD Biosciences) were used for measurement of cell invasion. The matrigel was solidified at 37° C. in a humidified incubator the day before the assay. PC3 cells (1×10^3 cells per well) were grown in serum-free RPMI1640 media in the upper side of the insert. The lower well was filled with RPMI 1640 supplemented with 10% FBS with a Limk inhibitor (1 μM). PC3 cells were incubated at 37° C. in a humidified atmosphere containing 5% CO2 for 48 h. Then transwell membrane was rinsed three times with PBS, and the cells were fixed in 2.5% EM grade glutaraldehyde for 15 min at room temperature (RT) with no shaking. After removing glutaraldehyde by aspirating, the cells were permeabilized with 0.5% Triton X-100 in PBS for 3 min at RT, and they were rinsed three times with PBS. Then, the cells were stained by Gill's hematoxylin No. 1 for 15 min at RT, and they were washed by distilled water for three times. To remove any residual stain, the cells were washed by acid alcohol for 3 minutes and then rinsed by distilled water twice. The cells were exposed with 0.04% NH4OH until a blue color is observed on the membrane and then rinsed by distilled water twice. The membranes were dried overnight, and the stained cells were visualized under Leica DMI3000B microscope.

P450 2D6 = P450 2D6 (Homo sapiens, UniProt P10635); assay: P450 inhibition at 10 μM; format: in vitro ADME
P450 2D6, sequence (P10635 whole entry): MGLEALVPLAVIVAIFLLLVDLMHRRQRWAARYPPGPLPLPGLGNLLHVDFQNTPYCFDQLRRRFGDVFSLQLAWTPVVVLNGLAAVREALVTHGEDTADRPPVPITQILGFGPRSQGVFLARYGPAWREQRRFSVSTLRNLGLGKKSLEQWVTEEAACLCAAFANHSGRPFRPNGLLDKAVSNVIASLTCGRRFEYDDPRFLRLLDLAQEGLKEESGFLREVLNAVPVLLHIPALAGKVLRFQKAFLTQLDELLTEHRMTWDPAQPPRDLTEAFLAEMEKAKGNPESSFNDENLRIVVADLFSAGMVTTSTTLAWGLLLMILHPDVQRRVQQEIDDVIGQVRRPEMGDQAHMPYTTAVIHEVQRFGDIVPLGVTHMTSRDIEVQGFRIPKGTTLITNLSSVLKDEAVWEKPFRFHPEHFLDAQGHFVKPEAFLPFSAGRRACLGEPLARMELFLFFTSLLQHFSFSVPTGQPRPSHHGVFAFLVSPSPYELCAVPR

P450 2C9 = P450 2C9 (Homo sapiens, UniProt P11712); assay: P450 inhibition at 10 μM; format: in vitro ADME
P450 2C9, sequence (P11712 whole entry): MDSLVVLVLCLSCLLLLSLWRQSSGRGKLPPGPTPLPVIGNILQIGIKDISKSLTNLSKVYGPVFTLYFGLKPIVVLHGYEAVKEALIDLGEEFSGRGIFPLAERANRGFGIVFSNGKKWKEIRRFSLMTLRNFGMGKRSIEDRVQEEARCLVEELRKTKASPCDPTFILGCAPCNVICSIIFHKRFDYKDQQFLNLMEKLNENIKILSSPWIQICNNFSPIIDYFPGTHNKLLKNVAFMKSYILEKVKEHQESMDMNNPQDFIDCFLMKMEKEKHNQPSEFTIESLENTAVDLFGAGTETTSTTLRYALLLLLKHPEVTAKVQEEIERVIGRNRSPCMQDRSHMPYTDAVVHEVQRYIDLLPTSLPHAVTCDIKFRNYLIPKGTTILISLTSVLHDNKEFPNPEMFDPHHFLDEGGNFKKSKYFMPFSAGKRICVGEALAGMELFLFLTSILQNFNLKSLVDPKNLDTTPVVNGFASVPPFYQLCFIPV

Limk1 [5] = target: T2, Limk1 (Homo sapiens, UniProt P53667); assay: Limk1 biochemical assay (Reaction Biology, 10-dose IC50); set-up: His; purchased Reaction Biology Corporation; host or cells: insect cells; conditions: means of ≥2 experiments
Target sequence in this assay (P53667 285-638): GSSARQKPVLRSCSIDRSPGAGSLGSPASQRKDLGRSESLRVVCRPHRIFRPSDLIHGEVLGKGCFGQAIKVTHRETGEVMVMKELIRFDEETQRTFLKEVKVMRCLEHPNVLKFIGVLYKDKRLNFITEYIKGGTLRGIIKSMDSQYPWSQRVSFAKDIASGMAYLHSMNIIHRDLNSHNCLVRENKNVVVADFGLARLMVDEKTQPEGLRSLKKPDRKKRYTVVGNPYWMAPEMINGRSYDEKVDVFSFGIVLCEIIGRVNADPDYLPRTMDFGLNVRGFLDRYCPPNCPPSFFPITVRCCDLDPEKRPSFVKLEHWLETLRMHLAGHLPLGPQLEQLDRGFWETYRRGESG

[6] = Plasma pharmacokinetics studies on rats; conditions: for Cmax: read-out: Cmax (iv)
Procedure: In vivo pharmacokinetics (PK) studies were conducted for selected compounds during the whole optimization at various stages in order to identify structural elements that are favorable for in vivo applications, and/or to evaluate the feasibility of optimized Limk inhibitors for animal studies.

ROCK-II = ROCK-II (Homo sapiens, UniProt O75116); assay: ROCK-II biochemical counter-screen
ROCK-II, sequence (O75116 whole entry, species assumed): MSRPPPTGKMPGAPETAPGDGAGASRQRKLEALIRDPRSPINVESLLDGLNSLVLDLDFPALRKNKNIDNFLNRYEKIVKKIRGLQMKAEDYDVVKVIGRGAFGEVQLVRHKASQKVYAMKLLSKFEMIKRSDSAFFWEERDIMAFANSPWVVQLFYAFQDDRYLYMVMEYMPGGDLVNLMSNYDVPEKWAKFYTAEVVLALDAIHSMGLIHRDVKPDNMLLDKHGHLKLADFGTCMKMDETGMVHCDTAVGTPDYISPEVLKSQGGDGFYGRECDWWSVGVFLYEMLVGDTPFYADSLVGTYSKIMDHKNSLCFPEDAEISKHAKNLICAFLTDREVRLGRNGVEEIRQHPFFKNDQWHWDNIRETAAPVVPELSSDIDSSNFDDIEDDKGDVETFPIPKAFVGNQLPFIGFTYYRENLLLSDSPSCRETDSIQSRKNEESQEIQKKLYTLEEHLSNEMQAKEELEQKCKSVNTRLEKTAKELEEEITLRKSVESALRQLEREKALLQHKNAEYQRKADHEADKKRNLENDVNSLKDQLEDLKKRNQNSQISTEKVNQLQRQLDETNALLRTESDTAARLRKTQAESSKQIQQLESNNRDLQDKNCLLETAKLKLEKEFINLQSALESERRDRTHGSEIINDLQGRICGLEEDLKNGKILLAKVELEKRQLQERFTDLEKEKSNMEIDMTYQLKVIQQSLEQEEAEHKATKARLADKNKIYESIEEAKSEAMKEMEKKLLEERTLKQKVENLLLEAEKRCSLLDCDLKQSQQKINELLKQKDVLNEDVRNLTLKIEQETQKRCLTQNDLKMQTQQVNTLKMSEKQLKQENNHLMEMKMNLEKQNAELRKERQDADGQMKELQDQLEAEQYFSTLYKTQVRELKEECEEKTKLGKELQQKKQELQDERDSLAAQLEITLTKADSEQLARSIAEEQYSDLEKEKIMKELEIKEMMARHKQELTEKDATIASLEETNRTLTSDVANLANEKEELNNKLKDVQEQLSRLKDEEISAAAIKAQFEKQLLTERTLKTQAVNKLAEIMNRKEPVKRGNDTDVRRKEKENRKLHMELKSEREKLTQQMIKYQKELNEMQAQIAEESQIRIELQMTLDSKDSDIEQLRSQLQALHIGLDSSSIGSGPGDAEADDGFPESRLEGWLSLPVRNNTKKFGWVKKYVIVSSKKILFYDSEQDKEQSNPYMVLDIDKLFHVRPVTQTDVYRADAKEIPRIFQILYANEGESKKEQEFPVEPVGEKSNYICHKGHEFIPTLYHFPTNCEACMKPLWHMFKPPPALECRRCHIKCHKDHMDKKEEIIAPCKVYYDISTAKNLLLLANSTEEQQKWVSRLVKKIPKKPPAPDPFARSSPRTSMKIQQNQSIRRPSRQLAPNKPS

P450 3A4 = P450 3A4 (Homo sapiens, UniProt P08684); assay: P450 inhibition at 10 μM; format: in vitro ADME
P450 3A4, sequence (P08684 whole entry): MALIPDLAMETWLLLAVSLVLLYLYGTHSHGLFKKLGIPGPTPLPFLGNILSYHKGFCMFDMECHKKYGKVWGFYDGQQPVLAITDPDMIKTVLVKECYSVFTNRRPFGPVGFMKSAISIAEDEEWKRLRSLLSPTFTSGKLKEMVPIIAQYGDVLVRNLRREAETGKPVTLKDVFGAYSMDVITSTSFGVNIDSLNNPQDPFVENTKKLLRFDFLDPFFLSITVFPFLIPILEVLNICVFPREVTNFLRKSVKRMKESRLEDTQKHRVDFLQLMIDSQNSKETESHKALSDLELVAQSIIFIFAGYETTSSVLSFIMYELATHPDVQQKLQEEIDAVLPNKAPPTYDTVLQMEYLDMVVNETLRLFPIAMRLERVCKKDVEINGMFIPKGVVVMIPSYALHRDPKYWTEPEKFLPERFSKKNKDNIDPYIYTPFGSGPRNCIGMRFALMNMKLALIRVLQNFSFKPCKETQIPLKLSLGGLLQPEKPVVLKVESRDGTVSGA

[7] = Microsomal stability, human liver microsomes; format: in vitro ADME
[8] = IOP lowering on rat eyes, topical dosing; format: in vivo, Brown Norway rats
JNK3 = JNK3 (Homo sapiens, UniProt P53779); assay: JNK3 biochemical counter-screen; conditions: Table 6; read-out: Biochemical Inhibition IC50 (nM) JNK3
JNK3, sequence (P53779 whole entry, species assumed): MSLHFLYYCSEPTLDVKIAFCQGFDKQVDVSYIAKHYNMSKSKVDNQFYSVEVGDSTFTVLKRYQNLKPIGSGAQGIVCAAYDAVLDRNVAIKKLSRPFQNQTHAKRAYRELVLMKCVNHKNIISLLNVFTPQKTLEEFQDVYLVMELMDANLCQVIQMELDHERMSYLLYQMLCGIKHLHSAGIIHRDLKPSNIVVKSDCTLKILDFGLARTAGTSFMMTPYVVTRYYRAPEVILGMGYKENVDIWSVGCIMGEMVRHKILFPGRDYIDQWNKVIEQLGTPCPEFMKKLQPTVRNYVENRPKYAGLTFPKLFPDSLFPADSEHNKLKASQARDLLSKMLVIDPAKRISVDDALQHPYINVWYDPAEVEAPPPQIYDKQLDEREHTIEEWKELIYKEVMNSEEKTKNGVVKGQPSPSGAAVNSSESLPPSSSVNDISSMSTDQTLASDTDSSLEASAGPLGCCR

[9] = system: p-cofilin in CEM-SS T cells; assay: Cofilin phosphorylation cell assay in CEM-SS T cell lines; format: cell-based; conditions: Homo sapiens
Procedure: Cells were lysed in NuPAGE LDS Sample Buffer (Invitrogen) followed by sonication. Samples were heated at 90° C. for 10 minutes, separated by SDS-PAGE, and then transferred onto nitrocellulose membranes (Invitrogen). The membranes were washed in TBST for 3 minutes and then blocked for 30 minutes at room temperature with Starting Block blocking buffer (Pierce). […] The blots were washed three times for 15 minutes and scanned with Odyssey Infrared Imager (Li-cor Biosciences). The same blots were also stripped and reprobed with antibodies against GAPDH (Abcam) as a loading control.

Limk1 [10] = target: T2, Limk1; conditions: reported by a Japanese group; read-out: Limk1 inhibition IC50; cited from earlier work
[11] = A7R5, A7r5 cells, read-out: Cofilin Phosphorylation In A7r5 Cells (IC50)
[12] = Table 5, read-out: Biochemical IC50 (nM) Limk1
[13] = Table 5, means of ≥2 experiments, read-out: Biochemical IC50 (nM) ROCK-II

SMILES	P450 % inh. at 10 μM 2D6 (P450 2D6) [%]	P450 % inh. at 10 μM 2C9 (P450 2C9) [%]	AUC (iv) ([6]; rats, iv dosing 1 mg/kg) [µM·h]	Cl (iv) ([6]; rats, iv dosing 1 mg/kg) [mL/min/kg]	Cmax ([6]; rats, iv dosing 1 mg/kg) [µM]	P450 % inh. at 10 μM 3A4 (P450 3A4) [%]	P450 % inh. at 10 μM 1A2 (P450 1A2; 10 μM) [%]	IC50 [2, 11] [nM]	Microsomal Stability t1/2 (min) Rat ([3]; rat liver microsomes) [min]	IC50 (Limk1 [5]; [12]) [nM]	T1/2 (iv) ([6]; rats, iv dosing 1 mg/kg) [min]	Yd (iv) ([6]; rats, iv dosing 1 mg/kg) [L/kg]	IC50 (ROCK-II; [13]) [nM]	IC50 (ROCK-II; read-out: ROCK-II IC50) [nM]	other results
Cc1c[nH]c2ncnc(-c3ccc(NC(=O)N(CCO)c4ccccc4Cl)cc3)c12 [Compound 18f, 1-(2-Chlorophenyl)-1-(2-hydroxyethyl)-3-(4-(5-methyl-7H-pyrrolo[2,3-d]pyrimidin-4-yl)phenyl)urea]	1	39	5.1	7.7	4.7	37	–	–	–	–	–	–	–	–	inhibition at 0.1 µM (PC-3 cells [1]): 13%; inhibition at 1 µM (PC-3 cells [1]): 76.1%; inhibition at 10 µM (PC-3 cells [1]): 81%; IC50 (ROCK-I): 4390 nM; P450 % inh. at 10 μM 1A2 (P450 1A2): −4/39/1/37%; IC50 ([2]; A7R5, read-out: Cofilin Phosphorylation In A7r5 Cells (IC50, nM)): 420 nM; Microsomal Stability t1/2 (min) Rat [3]: 38 min; inhibition at 1 µM (PC-3 cells [4]): 83%; IC50 (Limk1 [5]; Table 4, read-out: IC50 (nM) Limk1): 58 nM; T1/2 (iv) ([6]; rat, in vivo, iv, 1 mg/kg): 90 min; Yd (iv) ([6]; rat, in vivo, iv, 1 mg/kg): 0.7 L/kg; F (%) (po) ([6]; rats, po dosing 2 mg/kg): 21%; IC50 (ROCK-II; Table 4, means of ≥2 experiments, read-out: IC50 (nM) ROCK-II): 3340 nM
Cc1[nH]c2ncnc(-c3ccc(NC(=O)N(CCN(C)C)c4ccc(Cl)cc4)c(F)c3)c2c1C [Compound 18w, 1-(4-Chlorophenyl)-3-(4-(5,6-dimethyl-7H-pyrrolo[2,3-d]pyrimidin-4-yl)-2-fluorophenyl)-1-(2-(dimethylamino)ethyl)urea]	20	−23	3.0	14.2	2.4	−9	15	320	23	19	198	1.5	> 20000	> 20000	Microsomal Stability t1/2 (min) Human [7]: 19 min; maximal IOP decrease of the treated eye ([8]; 20 ul of […], from 1 to 4 hours, baseline 28 mmHg): ~6 mmHg; IOP drop on rat eyes ([8]; topical, dose of 50 μg): > 20%
COCCN(C(=O)Nc1ccc(-c2ncnc3[nH]c(C)c(C)c23)cc1F)c1ccc(Cl)cc1 [Compound 18x, 1-(4-Chlorophenyl)-3-(4-(5,6-dimethyl-7H-pyrrolo[2,3-d]pyrimidin-4-yl)-2-fluorophenyl)-1-(2-methoxyethyl)urea]	15	50	5.1	6.9	3.5	52	23	250	13	8	204	1.2	> 20000	> 20000	IC50 (JNK3): > 10000 nM; inhibition at 1 µM [9]: > 50%
COc1c(C=O)c(O)cc2c1C(=O)c1ccccc1C2=O [Damnacanthal]	–	–	–	–	–	–	–	–	–	–	–	–	–	–	IC50 (Limk1 [10]): ~800 nM
